The record followed here is patent publication US4948908A, “Organo phosphorus compounds and pesticidal compositions” (priority 1986, dated 1990).

Each structure is given as a SMILES string.

The nature of this data set: solubility of the quarternary ammonium salt in solvents. In kind it is physicochemical. As for the experimental part:
Preparation of Phenyl bis[4-NNN-trimethyl-ammonium-iodide-phenylamido]Phosphate, also designated phosphoric-acid-phenyl-ester-bis[4-NNN-trimethyl-ammonium-iodide-phenyl-amide] [drawing 25] The diamine V (Example 1) is dissolved in a mixture of 4:1 acetone:0.5MNaHCO3, and reacted overnight with excess Mel, methyliodide, at room temperature. The reaction mixture is then evaporated, dissolved in water and washed with ethyl acetate to remove impurities. The aqueous phase is then evaporated to dryness and the residue is washed several times with acetone to remove Sodiumiodide obtained as a by-product. The compound obtained is highly hygroscopic. The quarternary ammonium salt is very soluble in water but not in ethanol or acetone. It gives a negative reaction with TNBS.

With `C[N+](C)(C)c1ccc(NP(=O)(Nc2ccc([N+](C)(C)C)cc2)Oc2ccccc2)cc1` [Example 3, Phenyl bis[4-NNN-trimethyl-ammonium-iodide-phenylamido]Phosphate], the “solubility in ethanol or acetone” value (ethanol or acetone) was “not”. The solubility in water entry (water) is recorded as “very soluble”.
